US9326972B2, “Use of phenylmethimazoles, methimazole derivatives, and tautomeric cyclic thiones for the treatment of autoimmune/inflammatory diseases associated with toll-like receptor overexpression” (Ohio University, priority 2004, dated 2016)
Like-named read-outs stand apart in the source and are kept apart here.

Assays:
FRTL-5 cells = test: Effect of 2-aminopurine (PKR inhibitor) in dsRNA-transfected FRTL-5 cells; assay type: cell-based, rat; conditions: FRTL-5, 10 mM 2-AP
Experimental: FIG. 2. […] After total RNA purification, 20 μg of total RNA were analyzed with indicated radiolabeled cDNA probes. […] Cells were transfected Lipofectamine 2000 alone (L) or with the indicated amount of Poly (I:C) (RNA) or endotoxin-free E. coli DNA. After 12 and 24 hours, 20 μg of total RNA was analyzed with the indicated radiolabeled cDNA probes. […] In (C), the effect of 2-aminopurine (a PKR inhibitor) on transfected dsRNA-induced TLR3 mRNA levels was measured. Again cells were transfected with Lipofectamine 2000 alone or Lipofectamine with the indicated amount of Poly (I:C) or endotoxin-free E. coli DNA in the presence or absence of 10 mM 2-aminopurine. After the indicated incubation time, cells were harvested and 20 μg of total RNA was analyzed with the indicated radiolabeled cDNA probes. […] Data are representative of multiple experiments. In sum, dsRNA transfection is needed to increase gene expression of signals implicated in autoimmune-inflammatory diseases such as MHC genes and high levels of Type I interferons, not simply activation of TLR by incubating thyrocytes with dsRNA by dsRNA binding to TLR3 receptors. Moreover, despite increased PKR, the critical signal involved in TLR3/Type I IFN signaling by dsRNA transfection is not PKR mediated. […]

C57BL/6J mice = test: LPS-induced endotoxic shock in C57BL/6J mice: survival and signs of shock; assay type: in vivo, mouse; conditions: for Signs of shock at 12 hours, % of Animals: LPS-challenged mice
[1] = tested on: TLR3, MHC Class I, PKR, IP-10 mRNA in FRTL-5 cells; conditions: FRTL-5, 100 U/ml IFN
ERK1/2 MAPK, ELK1 = test: ERK1/2 MAPK phosphorylation and Elk1 transactivation in FRTL-5 thyrocytes; assay type: cell-based, rat; conditions: FRTL-5, pCMV-BD-Elk 1 and pFR-luc, 6 hrs
Experimental: Poly (I:C) (the dsRNA ligand commonly used as a test compound) activates the TLR3 mediated NF-κ β/Map kinase signal pathway in FRTL-5 thyrocytes. FRTL-5 cells were transiently transfected with 100 ng of luciferase reporter pNF-κB Luc and 2 ng of internal control phRL-Tk. After 36 h, cells were incubated with 100 μg/ml poly (I:C) or endotoxin-free E. coli DNA for 6 h. Measurements were made with the Dual Luciferase Assay System (Promega). Poly (I:C) increased TLR3 mediated NF-κB mediated luciferase activity (gene expression) 6 fold; dsDNA had no effect. Further support came from electrophoretic mobility shift analyses (EMSA). When FRTL-5 thyrocytes were incubated with 100 μg/ml poly (I:C), IL-1β, TNF-α or TPA, cells lysed after 1 h, and nuclear translocation of NF-κB measured. The poly (I:C) induced p50/p65 complex formation as measured by the presence of a specific new protein/DNA complex and its inhibition by anti-p50 and p65 antibodies, but not by anti-p52, c-rel and Rel B antibodies; the complex was also supershifted by anti-p50. […] Additionally, when FRTL-5 cells were co-transfected with pCMV-BD-Elk 1 and pFR-luc, then incubated with 100 μg/ml poly (I:C) or IL-1β for 6 hrs, ELK1 transactivation was increased 2-fold by both Poly (I:C) and IL-1β when measured with the Dual Luciferase Assay System (Promega). […]

NF-κB = NF-κB Luc reporter gene in FRTL-5 thyrocytes; assay type: cell-based, rat; conditions: FRTL-5, pNF-κB Luc, 100 μg/ml, 6 h
Experimental: Poly (I:C) (the dsRNA ligand commonly used as a test compound) activates the TLR3 mediated NF-κ β/Map kinase signal pathway in FRTL-5 thyrocytes. FRTL-5 cells were transiently transfected with 100 ng of luciferase reporter pNF-κB Luc and 2 ng of internal control phRL-Tk. After 36 h, cells were incubated with 100 μg/ml poly (I:C) or endotoxin-free E. coli DNA for 6 h. Measurements were made with the Dual Luciferase Assay System (Promega). Poly (I:C) increased TLR3 mediated NF-κB mediated luciferase activity (gene expression) 6 fold; dsDNA had no effect. Further support came from electrophoretic mobility shift analyses (EMSA). When FRTL-5 thyrocytes were incubated with 100 μg/ml poly (I:C), IL-1β, TNF-α or TPA, cells lysed after 1 h, and nuclear translocation of NF-κB measured. The poly (I:C) induced p50/p65 complex formation as measured by the presence of a specific new protein/DNA complex and its inhibition by anti-p50 and p65 antibodies, but not by anti-p52, c-rel and Rel B antibodies; the complex was also supershifted by anti-p50. […] Additionally, when FRTL-5 cells were co-transfected with pCMV-BD-Elk 1 and pFR-luc, then incubated with 100 μg/ml poly (I:C) or IL-1β for 6 hrs, ELK1 transactivation was increased 2-fold by both Poly (I:C) and IL-1β when measured with the Dual Luciferase Assay System (Promega). NF-κB/MAP Kinase signals evoked by TLR3 binding dsRNA are only one portion of TLR3 functional expression.
Cells were co-transfected with ISRE-Luc and pRLTk-Int and then treated without (none) or with Poly I:C (100 μg/ml), LPS (100 ng/ml), IL-1β (10 ng/ml) TNF-α (25 ng/ml), IFN-β (100 U/ml) or IFN-γ (1000 U/ml) in the presence of DMSO (−) or C10 for 6 hours. Data were obtained using the Dual Luciferase Assay system. The effect on the ISRE element is not duplicated by an NF-κB reporter plasmid despite the similarity of the two elements: ([…])5 (SEQ ID NO:3) vs. ([…])5 (SEQ ID NO:4), respectively. Data are representative of multiple experiments.
Plasmids for Reporter Gene Assays. Human IRF-3 was amplified from human cDNA and cloned into pCR 2.1 by the TOPO/TA (Invitrogen, Carlsbad, Calif.) cloning method, and then sequenced. IRF-3 was then excised by EcoRI digestion and subcloned into pCMV-BD (Stratagene, La Jolla, Calif.) for use in transactivation assays. To construct IFN-β-luc the human IFN-β promoter sequence was amplified from human genomic DNA (Clontech, Palo Alto, Calif.)) using Ex Taq™ Polymerase (Takara, Madison, Wis.). The PCR fragment contained human IFN-β promoter sequence from −125 to +34 relative to the transcription start site (+1) and incorporated KpnI and XhoI restriction sites at the 5′ and 3′ ends, respectively. The primers were as follows: hIFN-β (−125) KpnI (5′-[…]-3′) (SEQ ID NO:9) and hIFN-β (+34) XhoI (5′-[…]-3′). (SEQ ID NO: 10) The fragment was digested with KpnI and XhoI then ligated into a similarly digested pGL3 Basic (Promega, Madison, Wis.) vector. The human MyD88 wild and dominant negative expression vectors were kindly donated by Dr. P. E. Auron. pFR-luc (5×Gal4 DNA binding domains and minimal TATA box), ISRE-Luc, NF-κB-luc and the Elk1 trans-Reporting System were purchased from Stratagene. pRL TK-Int was purchased from Promega.
Transient Expression Analysis. A DEAE procedure was used to transfect promoter-luciferase gene constructs and expression plasmids into FRTL-5 cells. Briefly, FRTL-5 cells were grown in 24-well plates to about 70% confluence, washed with 0.5 ml of serum-free culture medium (6H0 medium), then exposed to 125 μl of premade plasmid-DEAE mixture per well for 15 min at room temperature. The plasmid-DEAE mixture was prepared by incubating 100 ng of plasmid DNA, unless otherwise noted in individual experiments, with 3.125 μl of DEAE-Dextran (10 mg/ml) (Promega, Madison Wis.). FRTL-5 cells were incubated with this mixture for 2 hr at 37° C. in a CO2 incubator, before 2 ml of 6H5 medium was added. […]

[2] = LPS 20 mg/kg i/p, drug i/p 30 min before LPS, 8 mice per group
[3] = challenged with LPS first, treated after 12 hours when shock had appeared

`Nc1ncc2[nH]cnc2n1` [Compound 2-AP, 2-aminopurine] was tested. Which “dsRNA-transfection-increased NF-κB p65/p50 complex formation (EMSA)” value (FRTL-5 cells) did it give?
Its value is “strongly inhibited”.

And the “dsRNA-transfection-induced increase in IFN-β mRNA levels” value (FRTL-5 cells)?
Its value is “did not inhibit”.

What does the source list for `CNC[C@H](O)[C@@H](O)[C@H](O)[C@H](O)CO.Cc1c(Nc2ncccc2C(=O)O)cccc1C(F)(F)F` [flunixin of meglumine]?
Number of surviving mice, 1 week (C57BL/6J mice; [2]): 0; Number of surviving mice, 6 hrs (C57BL/6J mice; [2]): 8; Number of surviving mice, 12 hrs (C57BL/6J mice; [2]): 8; Number of surviving mice, 18 hrs (C57BL/6J mice; [2]): 4; Number of surviving mice, 36 hrs (C57BL/6J mice; [2]): 0; Signs of shock at 12 hours, % of Animals (C57BL/6J mice): 100 % of Animals; Number of surviving mice, 1 week (C57BL/6J mice; [3]): 0; Number of surviving mice, 18 hrs (C57BL/6J mice; [3]): 0; Number of surviving mice, 36 hrs (C57BL/6J mice; [3]): 0

How did the “Number of surviving mice, 1 week” value (C57BL/6J mice; [2]) turn out when `C[C@]12C=CC(=O)C=C1CC[C@@H]1[C@@H]2[C@@H](O)C[C@@]2(C)[C@H]1CC[C@]2(O)C(=O)CO` [prednisolone] was run?
The value was 0.

And the “Number of surviving mice, 6 hrs” value (C57BL/6J mice; [2])?
The value was 8.

And the “Number of surviving mice, 12 hrs” value (C57BL/6J mice; [2])?
The value was 8.

What about the “Number of surviving mice, 18 hrs” value (C57BL/6J mice; [2]) of the same compound?
The value was 3.

What about the “Number of surviving mice, 36 hrs” value (C57BL/6J mice; [2]) of the same compound?
The value was 0.

What about the “Signs of shock at 12 hours, % of Animals” value (C57BL/6J mice) of the same compound?
The value was 100 % of Animals.

And the “Number of surviving mice, 1 week” value (C57BL/6J mice; [3])?
The value was 0.

And the “Number of surviving mice, 18 hrs” value (C57BL/6J mice; [3])?
Its value is 1.

And the “Number of surviving mice, 36 hrs” value (C57BL/6J mice; [3])?
Its value is 0.

How did the “GAPDH mRNA, % of Control at 0 Time (±15%)” value (from here on “GAPDH mRNA, % of Control”) ([1]; 1 hr) turn out when “IFN-γ: a Type II IFN, from Biosource International” was run?
Its value is 100 % of Control at 0 Time.

What about the “IP-10 mRNA, % of Control at 0 Time (±15%)” value (“IP-10 mRNA, % of Control” for short) ([1]; 1 hr) of the same compound?
The value was 100 % of Control at 0 Time.

And the “MHC Class I mRNA, % of Control at 0 Time (±15%)” value (“MHC Class I mRNA, % of Control” for short) ([1]; 1 hr)?
The value was 100 % of Control at 0 Time.

What about the “PKR mRNA, % of Control at 0 Time (±15%)” value ([1]; 1 hr) of the same compound?
The value was 100 % of Control at 0 Time.

What about the “TLR3 mRNA, % of Control at 0 Time (±15%)” value ([1]; 1 hr) of the same compound?
Its value is 100 % of Control at 0 Time.

What about the “GAPDH mRNA, % of Control” value ([1]; 3 hr) of the same compound?
The value was 100 % of Control at 0 Time.

What about the “IP-10 mRNA, % of Control” value ([1]; 3 hr) of the same compound?
The value was 100 % of Control at 0 Time.

And the “MHC Class I mRNA, % of Control” value ([1]; 3 hr)?
Its value is 100 % of Control at 0 Time.

And the “PKR mRNA, % of Control at 0 Time (±15%)” value ([1]; 3 hr)?
Its value is 100 % of Control at 0 Time.

What about the “TLR3 mRNA, % of Control at 0 Time (±15%)” value ([1]; 3 hr) of the same compound?
The value was 100 % of Control at 0 Time.

And the “GAPDH mRNA, % of Control” value ([1]; 6 hr)?
Its value is 100 % of Control at 0 Time.

And the “IP-10 mRNA, % of Control” value ([1]; 6 hr)?
The value was 100 % of Control at 0 Time.

And the “MHC Class I mRNA, % of Control” value ([1]; 6 hr)?
The value was 100 % of Control at 0 Time.

What about the “PKR mRNA, % of Control at 0 Time (±15%)” value ([1]; 6 hr) of the same compound?
Its value is 100 % of Control at 0 Time.

And the “TLR3 mRNA, % of Control at 0 Time (±15%)” value ([1]; 6 hr)?
The value was 100 % of Control at 0 Time.

What about the “GAPDH mRNA, % of Control” value ([1]; 12 hr) of the same compound?
The value was 100 % of Control at 0 Time.

And the “IP-10 mRNA, % of Control” value ([1]; 12 hr)?
Its value is 100 % of Control at 0 Time.

What about the “MHC Class I mRNA, % of Control” value ([1]; 12 hr) of the same compound?
The value was 100 % of Control at 0 Time.

And the “PKR mRNA, % of Control at 0 Time (±15%)” value ([1]; 12 hr)?
The value was 100 % of Control at 0 Time.

And the “TLR3 mRNA, % of Control at 0 Time (±15%)” value ([1]; 12 hr)?
The value was 100 % of Control at 0 Time.

For “IL-1β: cytokine used as positive control”, which “increase of ELK1 transactivation” value (ERK1/2 MAPK, ELK1) is on record?
Its value is 2 fold.

Poly (I:C) [reference compound] was tested. Which “increase of NF-κB mediated luciferase activity” value (NF-κB) did it give?
The value was 6 fold.

And the “increase of ELK1 transactivation” value (ERK1/2 MAPK, ELK1)?
Its value is 2 fold.
